Assay results taken from patent US20220315594A1, “METHOD OF SYNTHESIS OF COMPOUND FOR DUAL INHIBITION OF JAK2 AND BET” (OHM ONCOLOGY, priority 2019, published 2022).

Legend:
Settings in all cases: qualitative statement
BRD4 BD1 = BRD4 BD1 (Homo sapiens, UniProt O60885); experiment: In vitro biochemical assay, BRD4 BD1 inhibition
BRD4 BD2 = BRD4 BD2 (Homo sapiens, UniProt O60885); experiment: In vitro biochemical assay, BRD4 BD2 inhibition
JAK2 = JAK2 (Homo sapiens, UniProt O60674); experiment: In vitro biochemical assay, JAK2 inhibition
Sequence of JAK2 (O60674 whole entry): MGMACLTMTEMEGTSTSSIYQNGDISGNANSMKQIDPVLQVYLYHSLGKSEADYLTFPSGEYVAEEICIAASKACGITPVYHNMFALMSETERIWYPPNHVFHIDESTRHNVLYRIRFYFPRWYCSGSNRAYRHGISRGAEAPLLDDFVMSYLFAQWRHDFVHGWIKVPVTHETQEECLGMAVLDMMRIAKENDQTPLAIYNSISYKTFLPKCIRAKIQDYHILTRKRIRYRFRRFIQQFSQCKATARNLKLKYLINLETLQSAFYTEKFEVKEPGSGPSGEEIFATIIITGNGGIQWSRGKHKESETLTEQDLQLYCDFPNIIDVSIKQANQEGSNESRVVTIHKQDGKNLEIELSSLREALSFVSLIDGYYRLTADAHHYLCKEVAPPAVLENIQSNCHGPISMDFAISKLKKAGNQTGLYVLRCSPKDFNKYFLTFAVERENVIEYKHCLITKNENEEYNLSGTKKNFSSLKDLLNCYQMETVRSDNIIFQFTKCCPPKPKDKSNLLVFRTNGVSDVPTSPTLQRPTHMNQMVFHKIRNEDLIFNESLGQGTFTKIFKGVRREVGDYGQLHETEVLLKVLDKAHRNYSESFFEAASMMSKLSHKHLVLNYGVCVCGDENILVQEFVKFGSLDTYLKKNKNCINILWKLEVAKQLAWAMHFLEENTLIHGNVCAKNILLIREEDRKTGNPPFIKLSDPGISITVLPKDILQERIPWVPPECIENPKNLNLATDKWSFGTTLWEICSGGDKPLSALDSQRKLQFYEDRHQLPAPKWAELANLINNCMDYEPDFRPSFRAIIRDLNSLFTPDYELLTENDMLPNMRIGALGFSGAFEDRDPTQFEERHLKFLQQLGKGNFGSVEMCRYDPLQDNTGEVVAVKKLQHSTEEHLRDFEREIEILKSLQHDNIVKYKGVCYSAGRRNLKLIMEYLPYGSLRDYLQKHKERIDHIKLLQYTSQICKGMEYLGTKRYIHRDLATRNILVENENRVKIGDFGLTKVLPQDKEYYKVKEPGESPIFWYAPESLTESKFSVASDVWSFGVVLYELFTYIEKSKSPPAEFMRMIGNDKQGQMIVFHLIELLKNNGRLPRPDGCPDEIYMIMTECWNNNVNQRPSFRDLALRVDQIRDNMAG

[1] = test system: multiple liquid cancer cell lines; experiment: Anti-proliferative activity against liquid cancer cell lines; format: cell-based
cMYC expression = cMYC expression down-regulation; format: cell-based
JAK2 signaling = JAK2 signaling down-regulation; format: cell-based

- inhibition of BRD4 BD1 (BRD4 BD1): inhibit
- inhibition of BRD4 BD2 (BRD4 BD2): inhibit
- inhibition of JAK2 (JAK2): inhibit
SMILES: CN(C)C1CCN(c2ccc(Nc3ncc4ccn(-c5cccc(NS(=O)(=O)C(C)(C)C)c5)c4n3)cc2F)CC1 [OHM-581, N-(3-(2-((4-(4-(dimethylamino)piperidin-1-yl)-3-fluorophenyl)amino)-7H-pyrrolo[2,3-d]pyrimidin-7-yl)phenyl)-2-methylpropane-2-sulfonamide]
- anti-proliferative activity [1]: significant anti-proliferative activity
- cMYC expression (cMYC expression): robustly down-regulates
- JAK2 signaling (JAK2 signaling): robustly down-regulates
